# Source: PubChem BioAssay (NCI)
#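 Method: 48-hour compound exposure of cells in 96-well plates, five concentrations, linear interpolation of endpoints. TGI denotes the concentration required for complete inhibition of growth.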
# How the values were obtained:
# Assay in all cases: NCI anticancer screen, dose series, 48 h
# [1] = test system: HOP-18 NSCLC
# [2] = test system: LXFL 529 NSCLC
# [3] = test system: KM20L2 colon
# [4] = test system: DMS 114 small cell lung
# [5] = test system: DMS 273 small cell lung
# [6] = test system: DLD-1 colon
# [7] = test system: M19-MEL melanoma
# [8] = test system: XF 498 CNS
# [9] = test system: MDA-MB-435
# [10] = test system: MDA-MB-231 breast
# [11] = test system: DU-145 prostate
# [12] = test system: T-47D breast
# [13] = test system: NCI/ADR-RES ovarian
# [14] = test system: PC-3 prostate
SMILES,TGI [1] [µM],TGI [2] [µM],TGI [3] [µM],TGI [4] [µM],TGI [5] [µM],TGI [6] [µM],TGI [7] [µM],TGI [8] [µM],TGI [9] [µM],TGI [10] [µM],TGI [11] [µM],TGI [12] [µM],TGI [13] [µM],TGI [14] [µM]
Cc1ccc(Nc2nc(C)c(C(/C=C/c3ccc(/C=C/C(=N/NC(=O)C[n+]4ccccc4)c4sc(Nc5ccc(C)cc5[N+](=O)[O-])nc4C)cc3)=N\NC(=O)C[n+]3ccccc3)s2)c([N+](=O)[O-])c1,68,> 100,> 100,> 100,> 100,> 100,> 100,–,–,–,–,–,–,–
C[Si](C)(C)c1ccc(-c2sc(-c3ccc([Si](C)(C)C)s3)c3c2C[Si]2(C3)Cc3c(-c4ccc([Si](C)(C)C)s4)sc(-c4ccc([Si](C)(C)C)s4)c3C2)s1,–,> 100,> 100,–,> 100,> 100,> 100,> 100,–,–,–,–,–,–
Cc1[nH]c2ccccc2c1C1Cc2ccccc2N1C(=O)/C=C/C(=O)O (configuration not stated),–,> 100,> 100,> 100,> 100,> 100,> 100,> 100,–,–,–,–,–,–
Cc1ccc(C)c(NC(=O)CC/C(=N\NC(=O)c2c(O)ccc3ccccc23)C(C)C(=O)c2ccc(O)cc2)c1 (configuration not stated),83.8,> 100,30,–,> 100,> 100,–,91.9,–,–,–,–,–,–
O=CC1CCCc2ccccc21 (configuration not stated),> 100,> 100,> 100,> 71.4,> 100,> 63.8,> 100,> 100,–,–,–,–,–,–
Cc1cc(Cl)ccc1NC(=O)CC/C(CC(=O)C(C)C)=N\NC(=O)C[n+]1ccccc1,> 100,> 100,> 100,> 100,> 100,–,–,> 100,–,–,–,–,–,–
COC(=O)CCC(NC(=S)N/N=C/c1ccco1)C(=O)OC (configuration not stated),> 100,> 100,> 100,> 100,> 100,> 100,> 100,> 100,–,–,–,–,–,–
COc1ccc(C(=O)C(c2ccc(OC)cc2)C2(O)C(=O)Nc3c2ccc(Cl)c3C)cc1 (configuration not stated),> 100,> 100,> 100,> 100,–,–,> 100,–,–,–,–,–,–,–
COc1ccc(OC)c2c1C(=O)C1CC1(Br)C2=O (configuration not stated),–,> 100,> 100,> 100,> 100,> 100,> 100,> 100,–,–,–,–,–,–
CC(=O)C1C(=O)C(=O)N(c2ccccc2C(C)C)C1=O (configuration not stated),> 100,> 100,> 100,–,–,–,> 100,> 100,–,–,–,–,–,–
COC(=O)C1=CC2C(=O)OC1CC2C#N (configuration not stated),> 100,> 100,> 100,> 100,> 100,> 100,–,> 100,–,–,–,–,–,–
COc1cc(C2C(Cl)C(=O)N2NC(=O)c2ccc(N)cc2)ccc1O (configuration not stated),–,30.8,> 100,–,> 100,> 100,> 100,83.6,–,–,–,–,–,–
N#CC(c1nc2ccccc2nc1Cl)S(=O)(=O)c1ccccc1 (configuration not stated),–,> 100,> 100,> 100,> 100,> 100,> 100,> 100,–,–,–,–,–,–
COc1ccc(OC)c(NC(=O)CCC/C(CC(=O)c2ccc(O)c(OC)c2)=N\Nc2ccc([N+](=O)[O-])cc2)c1,> 100,> 100,> 100,> 100,> 100,> 100,> 100,> 100,–,–,–,–,–,–
CC1=C2C(=CC(C)(C)C2O)C(=O)C(C)(O)C12CC2 (configuration not stated),0.179,0.114,0.0522,0.0281,0.025,0.0447,0.0861,0.0309,–,–,–,–,–,–
[N-]=[N+]=NC(CI)c1cn([C@H]2C[C@H](O)[C@@H](CO)O2)c(=O)[nH]c1=O (some centres not stated),> 100,> 100,> 100,> 100,> 100,> 100,> 100,> 100,–,–,–,–,–,–
COC(=O)C1=C(c2cc(OC)c(OC)c(OC)c2)OC(c2ccc(OC)c(OC)c2)C1 (configuration not stated),> 100,> 100,> 100,81.3,> 100,> 100,> 100,> 100,–,–,–,–,–,–
COc1c(Cl)cc(NC(=S)C#N)cc1Cl,60.1,85.8,54.4,36.3,83.2,> 100,50.2,–,92.8,36.1,> 100,90.6,54.4,> 100
CCc1cccc(C)c1NC(=O)C(=O)Cc1nc2ccccc2s1,> 100,> 100,> 100,> 100,> 100,> 100,> 100,–,–,–,–,–,–,–
O=C(c1ccccc1)c1cccc(C(=O)c2ccccc2)c1,> 100,> 100,–,> 100,> 100,> 100,> 100,> 100,–,–,–,–,–,–
O=c1c2ccccc2nc(-c2ccccc2)n1NC1OC(CO)C(O)C(O)C1O (configuration not stated),> 100,> 100,> 100,> 100,> 100,> 100,> 100,> 100,–,–,–,–,–,–
